Common to all, as to type: biochemical
The target of one experiment is T1, human LSD1(171-852) (Homo sapiens, UniProt O60341).
T1 construct: to give hLSD1(171-852) purified product; made in house; host or cells: Escherichia coli C43(DE3) pLysS
The experiment is described as follows: Measurement of LSD1 inhibitory activity (time-resolved fluorescence, biotin-histone H3 mono methylated K4 peptide). Particulars: read-out: LSD1 IC50 value.

A further experiment addresses T2, MAO-B (Homo sapiens, UniProt P27338).
T2 construct: purchased Sigma-Aldrich Co. LLC
T2 sequence (P27338 1-520): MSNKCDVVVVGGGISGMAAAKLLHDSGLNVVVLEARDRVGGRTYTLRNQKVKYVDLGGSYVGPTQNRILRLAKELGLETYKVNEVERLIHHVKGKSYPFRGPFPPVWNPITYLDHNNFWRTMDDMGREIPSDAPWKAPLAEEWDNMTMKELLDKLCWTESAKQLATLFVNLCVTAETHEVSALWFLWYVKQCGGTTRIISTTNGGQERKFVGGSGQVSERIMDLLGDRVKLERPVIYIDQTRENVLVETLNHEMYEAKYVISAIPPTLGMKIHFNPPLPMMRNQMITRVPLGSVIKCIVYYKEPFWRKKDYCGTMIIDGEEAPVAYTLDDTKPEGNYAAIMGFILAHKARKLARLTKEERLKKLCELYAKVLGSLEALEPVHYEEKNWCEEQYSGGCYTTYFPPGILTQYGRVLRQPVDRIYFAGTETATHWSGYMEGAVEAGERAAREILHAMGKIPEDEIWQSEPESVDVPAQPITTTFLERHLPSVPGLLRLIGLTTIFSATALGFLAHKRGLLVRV
The experiment is described as follows: Measurement of MAO-B inhibitory activity (MAO-Glo Assay). The procedure, abridged:
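Percent inhibition was calculated from luciferin-based luminescence, corrected with a blank lacking enzyme and a control lacking compound. The reaction ran 60 min at room temperature after adding MAO substrate (16 µM as added). This followed a 10 min compound–enzyme preincubation in HEPES pH 7.5 buffer.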

For a further experiment, the target named is T3, MAO-A (Homo sapiens, UniProt P21397).
T3 construct: purchased Sigma-Aldrich Co. LLC
T3 sequence (P21397 1-527): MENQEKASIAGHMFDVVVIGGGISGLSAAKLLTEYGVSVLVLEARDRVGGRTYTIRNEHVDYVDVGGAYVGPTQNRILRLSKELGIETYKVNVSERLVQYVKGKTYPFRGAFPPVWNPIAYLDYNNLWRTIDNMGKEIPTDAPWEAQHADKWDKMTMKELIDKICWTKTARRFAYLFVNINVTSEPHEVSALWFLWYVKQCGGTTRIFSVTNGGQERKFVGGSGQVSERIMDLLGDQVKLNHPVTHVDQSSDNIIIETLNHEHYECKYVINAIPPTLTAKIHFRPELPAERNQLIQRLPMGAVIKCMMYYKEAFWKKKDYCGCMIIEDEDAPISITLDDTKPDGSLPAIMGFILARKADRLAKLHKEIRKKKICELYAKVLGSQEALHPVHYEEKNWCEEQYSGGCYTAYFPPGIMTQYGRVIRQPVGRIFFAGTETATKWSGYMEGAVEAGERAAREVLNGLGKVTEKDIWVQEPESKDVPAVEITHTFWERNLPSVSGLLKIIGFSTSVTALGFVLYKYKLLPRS
The experiment is described as follows: Measurement of MAO-A inhibitory activity (MAO-Glo Assay). The procedure, abridged:
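Luminescent MAO-Glo read-out: % inhibition computed from counts relative to enzyme-only control and enzyme-free blank. Compound and 400 ng MAO-A in HEPES pH 7.5 with 5% glycerol stood 10 min at room temperature before MAO substrate (160 μM stock) started a 60 min reaction.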

Experimental findings from patent US9682925B2, “Cyclopropaneamine compound” (TAKEDA PHARMACEUTICAL COMPANY LIMITED, priority 2011, dated 2017) are described below.

With `O=C(Nc1ccc([C@@H]2C[C@H]2NCC2CC2)cc1)c1ccc2cc[nH]c2c1` (relative stereo) [Example 115, N-(4-{trans-2-[(cyclopropylmethyl)amino]cyclopropyl}-phenyl)-1H-indole-6-carboxamide], the IC50 (as a rule, the concentration that gives 50% inhibition) on human LSD1(171-852) was less than 0.1 µM; against MAO-B, greater than 10 µM; at MAO-A, greater than 10 µM.

For the molecule `CCCc1ccc(-c2ccc(C(=O)Nc3ccc([C@@H]4C[C@H]4NCC4CC4)cc3)cc2)cc1` (relative stereo) [Example 116, N-(4-{trans-2-[(cyclopropylmethyl)amino]cyclopropyl}-phenyl)-4′-propylbiphenyl-4-carboxamide], the results for the IC50 on human LSD1(171-852), on MAO-B and against MAO-A were 1.8 µM, greater than 10 µM and greater than 10 µM, respectively.

Regarding `O=C(Nc1ccc([C@@H]2C[C@H]2NCC2CC2)cc1)c1ccc(-n2cccc2)cc1` (relative stereo) [Example 117, N-(4-{trans-2-[(cyclopropylmethyl)amino]cyclopropyl}-phenyl)-4-(1H-pyrrol-1-yl)benzamide], the concentration for half-maximal inhibition (IC50) is less than 0.1 µM at human LSD1(171-852), greater than 10 µM against MAO-B and 7.5 µM against MAO-A.

Take `Cc1ccc(-c2ccc(C(=O)Nc3ccc([C@@H]4C[C@H]4NCC4CC4)cc3)cc2)cc1` (relative stereo) [Example 118, N-(4-{trans-2-[(cyclopropylmethyl)amino]cyclopropyl}-phenyl)-4′-methylbiphenyl-4-carboxamide]: the IC50 was 0.1 µM at human LSD1(171-852), greater than 10 µM at MAO-B and greater than 10 µM on MAO-A.

With `O=C(Nc1ccc([C@@H]2C[C@H]2NCC2CC2)cc1)c1ccc(-c2csnn2)cc1` (relative stereo) [Example 119, N-(4-{trans-2-[(cyclopropylmethyl)amino]cyclopropyl}-phenyl)-4-(1,2,3-thiadiazol-4-yl)benzamide], the IC50 on human LSD1(171-852) was less than 0.1 µM; against MAO-B, greater than 10 µM; at MAO-A, 0.1 µM.

Consider `CC(C)(C)c1ccc(-c2ccc(C(=O)Nc3ccc([C@@H]4C[C@H]4NCC4CC4)cc3)cc2)cc1` (relative stereo) [Example 120, 4′-tert-butyl-N-(4-{trans-2-[(cyclopropylmethyl)amino]cyclopropyl}-phenyl)biphenyl-4-carboxamide], for which the IC50 on human LSD1(171-852) is 1.6 µM; on MAO-B, greater than 10 µM; against MAO-A, greater than 10 µM.

For the molecule `Cc1c(C(=O)Nc2ccc([C@@H]3C[C@H]3NCC3CC3)cc2)cnn1-c1ccccc1` (relative stereo) [Example 121, N-(4-{trans-2-[(cyclopropylmethyl)amino]cyclopropyl}-phenyl)-5-methyl-1-phenyl-1H-pyrazole-4-carboxamide], the 50% inhibitory concentration (IC50) is less than 0.1 µM on human LSD1(171-852), greater than 10 µM against MAO-B and greater than 10 µM on MAO-A.

In the case of `Cc1oc(-c2ccccc2)nc1C(=O)Nc1ccc([C@@H]2C[C@H]2NCC2CC2)cc1` (relative stereo) [Example 122, N-(4-{trans-2-[(cyclopropylmethyl)amino]cyclopropyl}-phenyl)-5-methyl-2-phenyl-1,3-oxazole-4-carboxamide], the results for the concentration for half-maximal inhibition (IC50) at human LSD1(171-852), on MAO-B and at MAO-A were less than 0.1 µM, greater than 10 µM and greater than 10 µM, respectively.

Turning to `O=C(Nc1ccc([C@@H]2C[C@H]2NCC2CC2)cc1)c1ccc(-c2ccccc2)o1` (relative stereo) [Example 123, N-(4-{trans-2-[(cyclopropyl-methyl)amino]cyclo-propyl}phenyl)-5-phenyl-2-furamide], the IC50 on human LSD1(171-852) was less than 0.1 µM; against MAO-B it was greater than 10 µM; against MAO-A, 5 µM.

In the case of `O=C(Nc1ccc([C@@H]2C[C@H]2NCC2CC2)cc1)c1cnn(-c2ccccc2)c1` (relative stereo) [Example 124, N-(4-{trans-2-[(cyclopropyl-methyl)amino]cyclo-propyl}phenyl)-1-phenyl-1H-pyrazole-4-carboxamide], the IC50 at human LSD1(171-852) is less than 0.1 µM; against MAO-B, greater than 10 µM; against MAO-A, greater than 10 µM.

Regarding `O=C(Nc1ccc([C@@H]2C[C@H]2NCC2CC2)cc1)c1nc(-c2ccccc2)cs1` (relative stereo) [Example 125, N-(4-{trans-2-[(cyclopropyl-methyl)amino]cyclo-propyl}phenyl)-4-phenyl-1,3-thiazole-2-carboxamide], the IC50 at human LSD1(171-852) was less than 0.1 µM; at MAO-B, greater than 10 µM; at MAO-A, 2.5 µM.

`O=C(Nc1ccc([C@@H]2C[C@H]2NCC2CC2)cc1)c1cc(-c2ccccc2)[nH]n1` (relative stereo) [Example 126, N-(4-{trans-2-[(cyclopropyl-methyl)amino]cyclo-propyl}phenyl)-5-phenyl-1H-pyrazole-3-carboxamide]: the results for the IC50 at human LSD1(171-852), at MAO-B and at MAO-A were less than 0.1 µM, greater than 10 µM and greater than 10 µM, respectively.

Regarding `O=C(Nc1ccc([C@@H]2C[C@H]2NCC2CC2)cc1)c1c[nH]c2ccccc12` (relative stereo) [Example 127, N-(4-{trans-2-[(cyclopropyl-methyl)amino]cyclo-propyl}phenyl)-1H-indole-3-carboxamide], the IC50 was 0.1 µM at human LSD1(171-852), greater than 10 µM against MAO-B and greater than 10 µM on MAO-A.

Consider `O=C(Nc1ccc([C@@H]2C[C@H]2NCC2CC2)cc1)c1n[nH]c2ccccc12` (relative stereo) [Example 128, N-(4-{trans-2-[(cyclopropyl-methyl)amino]cyclo-propyl}phenyl)-1H-indazole-3-carboxamide], for which the IC50 is less than 0.1 µM at human LSD1(171-852), greater than 10 µM at MAO-B and 5.3 µM against MAO-A.

Take `O=C(Nc1ccc([C@@H]2C[C@H]2NCC2CC2)cc1)c1cc2ccccc2o1` (relative stereo) [Example 129, N-(4-{trans-2-[(cyclopropyl-methyl)amino]cyclo-propyl}phenyl)-1-benzofuran-2-carboxamide]: the values for the IC50 on human LSD1(171-852), against MAO-B and against MAO-A were less than 0.1 µM, greater than 10 µM and 8.2 µM, respectively.

As to `CN1CCN(c2ccc(C(=O)Nc3ccc([C@@H]4C[C@H]4NCC4CC4)cc3)cc2)CC1` (relative stereo) [Example 130, N-(4-{trans-2-[(cyclopropyl-methyl)amino]cyclo-propyl}phenyl)-4-(4-methylpiperazin-1-yl)benzamide], the IC50 at human LSD1(171-852) is less than 0.1 µM; at MAO-B, greater than 10 µM; against MAO-A, greater than 10 µM.

`CN1CCN(c2cccc(C(=O)Nc3ccc([C@@H]4C[C@H]4NCC4CC4)cc3)c2)CC1` (relative stereo) [Example 131, N-(4-{trans-2-[(cyclopropyl-methyl)amino]-cyclopropyl}-phenyl)-3-(4-methylpiperazin-l-yl)benzamide]: the IC50 at human LSD1(171-852) is less than 0.1 µM; against MAO-B, greater than 10 µM; against MAO-A it was greater than 10 µM.

Turning to `O=C(Nc1ccc([C@@H]2C[C@H]2NCC2CC2)cc1)c1ccc(-c2cccnc2)cc1` (relative stereo) [Example 132, N-(4-{trans-2-[(cyclopropyl-methyl)amino]-cyclopropyl}-phenyl)-4-(pyridin-3-yl)benzamide], the IC50 is less than 0.1 µM at human LSD1(171-852), greater than 10 µM against MAO-B and 8.3 µM at MAO-A.

As to `O=C(Nc1ccc([C@@H]2C[C@H]2NCC2CC2)cc1)c1cc(-c2ccccc2)no1` (relative stereo) [Example 133, N-(4-{trans-2-[(cyclopropyl-methyl)amino]-cyclopropyl}-phenyl)-3-phenyl-1,2-oxazole-5-carboxamide], the values for the IC50 at human LSD1(171-852), at MAO-B and against MAO-A were less than 0.1 µM, greater than 10 µM and greater than 10 µM, respectively.

`CC(=O)N1CCCc2ccc(C(=O)Nc3ccc([C@@H]4C[C@H]4NCC4CC4)cc3)cc2C1` (relative stereo) [Example 134, 2-acetyl-N-(4-{trans-2-[(cyclopropyl-methyl)amino]-cyclopropyl}-phenyl)-2,3,4,5-tetrahydro-1H-2-benzazepine-8-carboxamide]: the half-inhibitory concentration (IC50) is less than 0.1 µM at human LSD1(171-852), greater than 10 µM at MAO-B and greater than 10 µM against MAO-A.
